# Target: T1, CETP (Homo sapiens, UniProt P11597)
# T1 construct: made in house; host or cells: CHO cells (serum-free conditioned medium)
# T1 sequence (P11597 18-493): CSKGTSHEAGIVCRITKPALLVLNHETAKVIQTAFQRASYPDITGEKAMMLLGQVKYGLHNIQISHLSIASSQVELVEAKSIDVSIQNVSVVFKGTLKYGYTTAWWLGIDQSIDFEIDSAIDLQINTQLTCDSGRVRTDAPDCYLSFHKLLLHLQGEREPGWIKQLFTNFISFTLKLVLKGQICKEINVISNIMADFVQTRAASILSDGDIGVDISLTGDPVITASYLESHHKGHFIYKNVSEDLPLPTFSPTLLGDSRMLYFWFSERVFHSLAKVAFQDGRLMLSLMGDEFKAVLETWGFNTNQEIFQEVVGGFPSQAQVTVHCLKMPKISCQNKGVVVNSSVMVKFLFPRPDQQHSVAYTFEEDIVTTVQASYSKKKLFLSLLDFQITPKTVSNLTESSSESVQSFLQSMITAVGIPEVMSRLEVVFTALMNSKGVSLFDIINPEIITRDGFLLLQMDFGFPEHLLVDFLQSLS
# Test: CETP activity in vitro: transfer of [3H]CE from HDL donor to LDL acceptor particles
# Type: biochemical
# Conditions: 50% inhibition of [3H]CE transfer from HDL to LDL, 2 hours at 37° C.; read-out: IC50(μm)
# Experimental: The ability of compounds to inhibit CETP were assessed using an in vitro assay that measured the rate of transfer of radiolabeled cholesteryl ester ([^3H]CE) from HDL donor particles to LDL acceptor particles. Details of the assay are provided by Glenn et al. (“Quantification of Cholesteryl Ester Transfer Protein (CETP): A) CETP Activity and B) Immunochemical Assay of CETP Protein,” Meth. Enzymol., Glenn and Melton (Meth. Enzymol., 263, 339-351 (1996), which is incorporated herein by reference). CETP was obtained from the serum-free conditioned medium of CHO cells transfected with a cDNA for CETP (Wang, S. et al. J. Biol Chem. 267, 17487-17490 (1992), which is incorporated herein by reference).
# To measure CETP activity, [^3H]CE-labeled HDL, LDL, CETP and assay buffer (50 mM tris(hydroxymethyl)amino-methane, pH 7.4; 150 mM sodium chloride; 2 mM ethylenediamine-tetraacetic acid; 1% bovine serum albumin) were incubated in a volume of 200 μl, for 2 hours at 37° C. in 96 well plates. LDL was differentially precipitated by the addition of 50 μl of 1% (w/v) dextran sulfate/0.5 M magnesium chloride, mixed by vortex, and incubated at room temperature for 10 minutes The solution (200μl) was transferred to a filter plate (Millipore). After filtration, the radioactivity present in the precipitated LDL was measured by liquid scintillation counting.
# This value was defined as the IC50.
row,SMILES,IC50
1,"COC(=O)c1c(C(F)F)nc(C(F)(F)F)c(CSc2ccc(C(C)(C)C)cc2)c1CC(C)C [Compound 3, Methyl 5-(4-t-Butylphenylthiomethyl)-2-(difluoromethyl)-4-(2-methylpropyl)-6-(trifluoromethyl)-3-pyridinecarboxylate]",9 µM
2,"CCOC(=O)c1c(C(F)(F)F)nc(C(F)(F)F)c(C)c1Sc1ccc(C(C)C)cc1 [Compound 11, Ethyl 2,6-Bis(trifluoromethyl)-4-[4-(isopropylphenyl)thio]-5-methyl-3-pyridinecarboxylate]",25 µM
3,"COC(=O)c1c(C(F)F)nc(C(F)(F)F)c(C(O)c2ccco2)c1CC(C)C (stereo not drawn) [Compound 13, Methyl 2-(difluoromethyl)-5-(1-hydroxyl-furylmethyl)-4-(2-methylpropyl)-6-(trifluoromethyl)-3-pyridinecarboxylate]",30 µM
4,COC(=O)c1c(C(F)F)nc(C(F)(F)F)c(N=C=S)c1CC(C)C [Compound 18],35 µM
5,"CCOC(=O)c1c(C(F)F)nc(C(F)(F)F)c(C(=O)OCC)c1SC1CCCC1 [Compound 22, Diethyl 2-(Difluoromethyl)-4-(cyclopentylthio)-6-(trifluoromethyl)-3,5-pyridinedicarboxylate]",40 µM
6,CCOC(=O)c1c(Sc2ccccc2)cc(C(F)(F)F)nc1C(F)(F)F [Compound 23],40 µM
7,"COC(=O)c1c(C(F)F)nc(C(F)(F)F)c(N=C(OC)SC)c1CC(C)C [Compound 27, Methyl 2-(Difluoromethyl)-5-{[methoxy (methylthio)methylene]amino)-4-(2-methylpropyl)-6-(trifluoromethyl)-3-pyridinecarboxylate]",40 µM
8,"COC(=O)c1c(C(F)F)nc(C(F)(F)F)c(CI)c1CC(C)C [Compound 32, Methyl 2-(Difluoromethyl)-5-(iodomethyl)-4-(2-methylpropyl)-6-(trifluoromethyl)-3-pyridinecarboxylate]",45 µM
9,"COC(=O)c1c(C(F)F)nc(C(F)(F)F)c(C(OC)c2ccns2)c1CC(C)C (stereo not drawn) [Compound 34, Methyl 2-(Difluoromethyl)-5-[(methoxy)isothiazol-5-ylmethyl]-4-(2-methylpropyl)-6-(trifluoromethyl)-3-pyridinecarboxylate]",45 µM
10,"COC(=O)c1c(OCc2ccccc2)cc(C(F)(F)F)nc1C(F)(F)F [Compound 37, Methyl 2,6-bis(Trifluoromethyl)-4-(benzyloxy)-3-pyridinecarboxylate]",45 µM
11,"COC(=O)c1c(C(F)F)nc(C(F)(F)F)c(COC(=O)c2ccccc2)c1CC1CC1 [Compound 41, Methyl 5-(Benzoyloxymethyl)-2-(difluoromethyl)4-(cyclopropylmethyl)-6-(trifluoromethyl)-3-pyridinecarboxylate]",50 µM
12,"COC(=O)c1cc(CSC(=S)N(C)C)c(C(F)(F)F)nc1C(F)F [Compound 43, Methyl 2-(Difluoromethyl)-5-[(dimethylaminothionothio)methyl]-6-(trifluoromethyl)-3-pyridinecarboxylate]",50 µM
13,CCOC(=O)c1c(C(F)(F)F)nc(C(F)F)c(NC(=O)Nc2c(C(F)F)nc(C(F)(F)F)c(C(=O)OCC)c2CC)c1CC [Compound 48],50 µM
14,CCOC(=O)c1c(C(F)(F)F)nc(C(F)(F)F)c(C(=O)OC)c1OCC [Compound 52],50 µM
15,"CCOC(=O)c1c(C(F)(F)F)nc(C(F)(F)F)c(C)c1OC(C)C [Compound 53, Ethyl 2,6-Bis(trifluoromethyl)-4-(isopropoxy)-5-methyl-3-pyridinecarboxylate]",50 µM
16,COC(=O)c1c(C(F)(F)F)ncc(C(=O)c2cnc(C(F)(F)F)c(C(=O)OC)c2OC(C)C)c1OC(C)C [Compound 54],50 µM

# Same assay, conditions: IC50(μm), 50% inhibition of [3H]CE transfer from HDL to LDL, 2 hours at 37° C.
row,SMILES,IC50
1,COC(=O)c1c(C(F)F)nc(C(F)(F)F)c(N=S=O)c1CC(C)C [Compound 1],2 µM
2,"CCOC(=O)c1c(C(F)(F)F)nc(C(F)F)c(C(=O)OC)c1S [Compound 2, 3-Methyl 5-Ethyl 2-(Difluoromethyl)-4-mercapto-6-(trifluoromethyl)-3,5-pyridinedicarboxylate]",3 µM
3,"CCCCCCCCCCCCCCCC(=O)Sc1c(C(F)(F)F)nc(C(F)F)c(C(=O)OC)c1CC(C)C [Compound 5, Methyl 2-(Difluoromethyl)-4-(2-methylpropyl)-5-(palmitoylthio)-6-(trifluoromethyl)-3-pyridinecarboxylate]",8 µM
4,"COC(=O)Sc1c(C(F)(F)F)nc(C(F)F)c(C(=O)OC)c1CC(C)C [Compound 6, Methyl 2-(Difluoromethyl)-4-(2-methylpropyl)-5-[(methoxycarbonyl)thio]-6-(trifluoromethyl)-3-pyridinecarboxylate]",8 µM
5,"CC(C)Cc1c(C(=O)OC(C)(C)C)c(C(F)F)nc(C(F)(F)F)c1C(=O)OC(C)(C)C [Compound 9, Di-t-Butyl 2-(difluoromethyl)-4-(2-methylpropyl)-6-(trifluoromethyl)-3,5-pyridinedicarboxylate]",20 µM
6,"COC(=O)c1c(C(F)(F)F)nc(C(F)(F)F)c(C2=NCCS2)c1CC(C)C [Compound 12, Methyl 2,6-Bis(trifluoromethyl)-5-(4,5-dihydro-2-thiazoly)-4-(2-methylpropyl)-3-pyridinecarboxylate]",25 µM
7,"COC(=O)c1c(C(F)F)nc(C(F)(F)F)c(C(=O)SC(C)C)c1C1CCC1 [Compound 14, Methyl 2-(Difluoromethyl)-5-[(i-propylthio)carbonyl]-4-(cyclobutyl)-6-(trifluoromethyl)-3-pyridinecarboxylate]",30 µM
8,COC(=O)c1c(C(F)F)nc(C(F)(F)F)c(N=C(CBr)OC)c1CC(C)C [Compound 16],30 µM
9,"COC(=O)c1c(C(F)F)nc(C(F)(F)F)c(C#C[Si](C)(C)C)c1CC(C)C [Compound 19, Methyl 2-(Difluoromethyl)-4-(2-methylpropyl)-6-(trifluoromethyl)-5-[(trimethylsilyl)ethynyl]-3-pyridinedicarboxylate]",35 µM
10,CCSC(C)c1c(C(F)(F)F)nc(C(F)F)c(C(=O)OC)c1CC1CC1 (stereo not drawn) [Compound 21],40 µM
11,COC(=O)c1c(C(F)F)nc(C(F)(F)F)c(N=COCC2CO2)c1CC(C)C (stereo not drawn) [Compound 30],40 µM
12,"COC(=O)c1c(C(F)F)nc(C(F)(F)F)c(SCSC)c1CC(C)C [Compound 33, Methyl 2-(Difluoromethyl)-4-(2-methylpropyl)-5-(methylthiomethylthio)-6-(trifluoromethyl)-3-pyridinecarboxylate]",45 µM
13,"COC=C(Br)c1c(C(F)(F)F)nc(C(F)F)c(C(=O)OC)c1CC1CC1 [Compound 35, Methyl 5-(1-Bromo-2-methoxyethenyl)-4-(cyclopropylmethyl)-2-(difluoromethyl)-6-(trifluoromethyl)-3-pyridinecarboxylate]",45 µM
14,"CCOC(=O)c1c(C(F)(F)F)nc(C(F)(F)F)c(C(=O)OCC)c1CC(C)C [Compound 36, Diethyl 2,6-Bis(trifluoromethyl)-4-(2-methylpropyl)-3,5-pyridinedicarboxylate]",45 µM
15,CCOC(=O)c1c(C(F)F)nc(C(F)(F)F)c(C(=O)OCC)c1C1CCCCC1 [Compound 38],50 µM
16,"CCOC(=O)c1c(C(F)F)nc(C(F)(F)F)c(C(=O)OCC)c1SC(C)(C)C [Compound 39, Diethyl 2-(Difluoromethyl)-4-(t-butylthio)-6-(trifluoromethyl)-3,5-pyridine-dicarboxylate]",50 µM
17,"COC(=O)c1c(C(F)F)nc(C(F)(F)F)c(N=C(SC)SC)c1CC(C)C [Compound 42, Methyl 5-{[Bis(methylthio)methylene]amino}-2-(difluoromethyl)-4-(2-methylpropyl)-6-(trifluoromethyl)-3-pyridinecarboxylate]",50 µM
18,COC(=O)c1c(C(F)F)nc(C(F)(F)F)c(C(=O)OC)c1CCC(C)C [Compound 49],50 µM
19,"COC(=O)c1c(C(F)F)nc(C(F)(F)F)c(C(=NC(C)C)SC)c1CC(C)C [Compound 58, Methyl 2-(difluoromethyl)-5-{[isopropylimino(methylthio)methyl]}-4-(2-methylpropyl)-6-(trifluoromethyl)-3-pyridinecarboxylate]",55 µM
20,"COC(=O)c1c(C(F)F)nc(C(F)(F)F)c(C2OCCCO2)c1CC(C)C [Compound 59, Methyl 2-(Difluoromethyl)-5-(1,3-dioxan-2-yl)-4-(2-methylpropyl)-6-(trifluoromethyl)-3-pyridinecarboxylate]",55 µM

# — patent publication US6794396B2, “Substituted pyridines useful for inhibiting cholesteryl ester transfer protein activity” (Pharmacia Corporation, priority 1998, dated 2004)
